Tests used:
[1] = test system: IL-2 production in Jurkat E6-1 cells; assay: IL-2 production in activated Jurkat cells; type: cell-based, human; conditions: activated IL-2 production in Jurkat T cells; relative to the activity of 5 μM RT03S (100%)
Protocol: The T-cell lymphoma cell lines, Jurkat E6-1 (CD28+/CD4+) cells (152-TIB) and HUT 78 (CD28-/CD4+) cells (TIB-161) (ATCC, Rockville, Md.) were maintained in RPMI-10 (RPMI-1640 medium containing […] HEPES buffer, pH 7.4, 10% fetal calf serum (FCS) (Hyclone, Logan, Utah), 1% L-glutamine and 1% penicillin/streptomycin).
(§1) Prior to the addition of human peripheral T-cells or T-cell lymphoma cell lines (0.2-0.3×10^6), duplicate 96-well microtitre plates were pre-coated with purified anti-CD3 monoclonal antibody (mAb) (6.25-200 ng/well) (clone HIT 3a, Pharmingen, San Diego, Calif.) and washed twice with cold phosphate-buffered saline, pH 7.4 (PBS). Anti-CD3 mAb-treated T-cells were further activated by the addition of 2 ng phorbol 12-myristate 13-acetate (PMA) (Calbiochem, La Jolla, Calif.) and incubated for 48 h at 37° C. Anti-CD3/PMA-activated T-cells were treated with 1-20 μM CD28-specific and control oligonucleotides immediately following activation and re-treated 24 h later. T-cells from one duplicate plate was used for immunofluorescence analysis and the supernatants used for cytokine studies and the second plate was used for T-cell proliferation analysis.
Cell-derived human cytokine concentrations were determined in cell supernatants from the first duplicate microplate. Mitogen-induced changes in interleukin-2 (IL-2) levels were determined using a commercially available ELISA kit (R & D systems Quantikine kit, Minneapolis, Minn.) or by bioassay using the IL-2-dependent cell line, CTLL-2 (ATCC, Rockville, Md.). Mitogen-induced changes in interferon-gamma and interleukin-8 (IL-8) levels were determined by ELISA using kits from Endogen (Cambridge, Mass.) and R & D systems (Quantikine kit, Minneapolis, Minn.) respectively. All ELISA results were expressed as pg/ml and the CTLL-2 bioassay as counts per minute representing the IL-2 -dependent cellular incorporation of ^3 H-thymidine (ICN, Costa Mesa, Calif.) by CTLL-2 cells.
(§2) Peripheral blood mononuclear cells (PBMCs) were isolated from healthy donors by density gradient centrifugation followed by T cell enrichment using Lymphokwik (One Lambda). Contaminating monocytes were removed by adherence to plastic. Purified T cells were >99% CD2^+, <1% HLA-DR^+ and <5% CD25^+. Jurkat E6-1 (CD28^+ /CD4^+) T cells and HUT 78 (CD28^- /CD4^+) T cells and the monocytic cell line, THP were obtained from ATCC. Cells were cultured at a concentration of 0.2-0.3×10^6 /well and activated with plate-immobilized anti-CD3 monoclonal antibody (mAb) (HIT3A 0.25 μg/ml) (Pharmingen) and 2 ng phorbol 12-myristate 13-acetate (PMA) (Calbiochem).
Proliferative responses were assessed by measuring ^3 H-thymidine (1 μCi, ICN) incorporation for the last 16 h of each assay. Cells were harvested onto filters and DNA synthesis was measured following scintillation counting on a Wallac Betaplate counter. Cytokine concentrations in culture supernatants were assayed using ELISA kits for IL-2, IL-8 (R & D Systems) and IFN-γ (Endogen) or by bioassay using the IL-2 -dependent cell line, CTLL-2 (ATCC).

[2] = test system: CD28 expression in anti-CD3/PMA-activated human T-cells; assay: Activation-induced CD28 surface expression, immunofluorescence analysis; type: cell-based; conditions: for Relative inhibition of expression, CD28: anti-CD3/PMA-activated peripheral human T cells, relative to the activity of 5 μM RT03S (100%); for loss of inhibitory activity relative to RT03S: G to C substitutions within both four G regions
Protocol: as §1
Following activation, […] cell supernatant from the first duplicate microplate was transferred to another microplate for analysis of cell-derived cytokine production. The remaining cells were washed twice with isotonic saline solution, pH 7.4 (Becton Dickinson, Mansfield, Mass.) and resuspended in […] isotonic saline solution and split into two samples. One sample aliquot was co-stained with either PE-CD28/FITC-CD4 or PE-CD54/FITC-CD25 mAb and non-specific fluorescence was assessed by staining the second aliquot with PE/FITC-labeled isotype-matched control monoclonal antibody. All fluorescence-labeled monoclonal antibodies were obtained from Becton Dickinson (San Jose, Calif.). Incubations were performed in the dark at 4° C. for 45 min using saturating mAb concentrations. Unincorporated label was removed by washing in PBS prior to the analysis with a FACScan flow cytometer (Becton Dickinson). Antigen density was indirectly determined in gated live cells and expressed as the mean channel of fluorescence (MCF). Surface expression of specific antigens (CD54, CD25) was represented as the mean channel shift (MCS) obtained by subtracting the MCF of FITC- or PE-labeled isotype-matched (IgG1) control mAb-stained cells from the MCF of FITC- or PE-labeled antigen-specific mAb stained cells. Alternatively, surface expression of the CD4^+ -subset of cells stained with CD28 mAb was determined by subtracting the MCF of […]. The viability of control untreated and oligonucleotide-treated cells were determined in each batch of all oligonucleotides in multiple donors by staining with the vital dye, propidium iodide (5 μg/ml final concentration). The percentage of live cells which excluded propidium iodide was determined by flow cytometry and was >90% (range 90-99%) following treatment with all batches of all oligonucleotides at a dose range of 1-20 μM (FIG. 2).
as §2
Cells were co-stained with either PE-CD28/FITC-CD4 or PE-CD54/FITC-CD25 mAb or with PE/FITC-labeled isotype-matched controls (Becton Dickinson). Cell surface antigen density (CD28, CD54, CD25) was confirmed by flow cytometry (FACScan, Becton Dickinson). Viability was assessed by propidium iodide (5 μg/ml) exclusion in control untreated and oligo-treated CD4^+ cells from multiple donors and was typically >90% (range 90-99%) following 48 h incubation with 1-10 μM of each batch of all oligonucleotides.

[3] = molecular target: CD3 (T-cell receptor/CD3 complex) on human T cells (human)
[4] = molecular target: CD3 (T-cell receptor/CD3 complex) on human T cells (human); remark: listed apart in the source

RT05S: TTG GAG GGG GAG GAG GGG, SEQ ID NO: 51 (DNA TTGGAGGGGGAGGAGGGG; chemistry not given here)
Relative inhibition of expression, IL-2 [1]: 100%
Relative inhibition of expression, CD28 [2]: 136%

RT06S: TTC CAG CCC CTC CTC CCC, SEQ ID NO: 64 (DNA TTCCAGCCCCTCCTCCCC; chemistry not given here)
Relative inhibition of expression, IL-2 [1]: 22%
Relative inhibition of expression, CD28 [2]: 29%

RT09S: TTG GAG GGG GAG GTG GGG, SEQ ID NO: 52 (DNA TTGGAGGGGGAGGTGGGG; chemistry not given here)
Relative inhibition of expression, IL-2 [1]: 100%
Relative inhibition of expression, CD28 [2]: 126%

RT10S: TTG GAG GCG GTG GTG GCG, SEQ ID NO: 53 (DNA TTGGAGGCGGTGGTGGCG; chemistry not given here)
Relative inhibition of expression, IL-2 [1]: 38%
loss of inhibitory activity relative to RT03S ([2]; range over the named group): 56-69%
Relative inhibition of expression, CD28 [2]: 31%

RT11S: GGG GAG GAG GGG CTG GAA, SEQ ID NO: 50, sense sequence, upstream region of the CD28 gene (sense GGGGAGGAGGGGCTGGAA; chemistry not given here)
Relative inhibition of expression, IL-2 [1]: 100%
Relative inhibition of expression, CD28 [2]: 100%

RT18S: GGG GTG GTG GGG, SEQ ID NO: 57, core 12 mer sequence (DNA GGGGTGGTGGGG; chemistry not given here)
Relative inhibition of expression, IL-2 [1]: 120%
Relative inhibition of expression, CD28 [2]: 103%

RT19S: G GGG TTG GGG, SEQ ID NO: 58 (DNA GGGGTTGGGG; chemistry not given here)
Relative inhibition of expression, IL-2 [1]: 89%
Relative inhibition of expression, CD28 [2]: 30%
reduction of relative bioactivity ([2]; insertion or deletion of bases separating the sets of G's, range over the named group): 52-70%

RT23S: TTG GAGCCG GTG GTG G, SEQ ID NO: 56 (DNA TTGGAGCCGGTGGTGG; chemistry not given here)
Relative inhibition of expression, IL-2 [1]: 57%
loss of inhibitory activity relative to RT03S ([2]; range over the named group): 56-69%
Relative inhibition of expression, CD28 [2]: 38%

RT24S: TTG GAG CCG GTG GTG GCC, SEQ ID NO: 54 (DNA TTGGAGCCGGTGGTGGCC; chemistry not given here)
Relative inhibition of expression, IL-2 [1]: 57%
loss of inhibitory activity relative to RT03S ([2]; range over the named group): 56-69%
Relative inhibition of expression, CD28 [2]: 40%

RT25S: TTG GAG GGG CTC CTC GGG, SEQ ID NO: 55 (DNA TTGGAGGGGCTCCTCGGG; chemistry not given here)
Relative inhibition of expression, IL-2 [1]: 25%
loss of inhibitory activity relative to RT03S ([2]; range over the named group): 56-69%
Relative inhibition of expression, CD28 [2]: 44%

anti-CD3 monoclonal antibody (clone HIT 3a, Pharmingen)
surface expression of CD28 (immunofluorescence, MCS) [3]: 150 MCS
incorporation of 3H-thymidine (T-cell proliferation) (counts per minute) [4]: 302000

— patent US5932556A, “Methods and compositions for regulation of CD28 expression” (priority 1995, dated 1999)
